{"source": "patent US20210161868A1", "about": "“ANTI-INFLAMMATORY THERAPY IN ARRHYTHMOGENIC CARDIOMYOPATHY (ACM)” (Beth Israel Deaconess Medical Center, Inc., priority 2018, published 2021)", "system": "Dsg2^mut/mut mice", "experiment": "Myocardial histology, TUNEL, immunofluorescence and immunoperoxidase in Dsg2^mut/mut mice", "assay_type": "in vivo", "method": "Three cohorts of mice at 8 weeks of age were anesthetized and implanted with subcutaneous osmotic mini-pumps (Alzet, Model 1004). These included: 1) Dsg2^mut/mut mice with pumps containing 50 μg/μL Bay11-7082 in a vehicle of 65% DMSO, 15% ethanol, and 20% saline; 2) Dsg2^mut/mut mice with pumps containing an equivalent volume of vehicle; and 3) wildtype mice with pumps containing vehicle. Mice in cohort 1 received 5 mg/kg/day of Bay11-7082 by continuous infusion; those in cohorts 2 and 3 received an equivalent volume of vehicle each day for 4 weeks. At 12 weeks of age, mice were re-anesthetized and new Alzet pumps were implanted for an additional 4 weeks of treatment.\nImmunofluorescence staining was used to characterize the distribution of selected proteins at cell-cell junctions as previously reported.^6,15 Deparaffinized slide-mounted myocardial sections (5 μm thick) were rehydrated and heated in citrate buffer (10 mmol/L, pH 6.0) to enhance specific immunostaining. After being cooled to room temperature, tissue sections were simultaneously permeabelized and blocked by incubating them in PBS containing 1% Triton X-100, 3% normal goat serum and 1% bovine serum albumin. The sections were then incubated first with primary antibodies and then with Cy3-conjugated goat anti-rabbit IgG (Jackson Immunolabs, 1:400). Primary antibodies included rabbit polyclonal anti-Cx43 (SIGMA C6219, 1:200), anti-N-cadherin (SIGMA C3678, 1:400), anti-plakoglobin (Thermo Fisher Scientific PA5-17320, 1:500), anti-GSK3β (Cell Signaling Technology 27C10, 9315S, 1:80) and anti-SAP97 (Abcam, ab134156, 1:200). Immunostained preparations were visualized by confocal microscopy. Additional sections prepared with Masson trichrome and hematoxylin & eosin stains were examined by light microscopy.\nImmunoperoxidase staining was used to detect expression of selected cytokines in sections of mouse myocardium as previously reported.^12 Slide-mounted paraffin sections were heated to 60° C. for 80 minutes, cooled to room temperature, deparaffinized, and rehydrated. Antigen retrieval was achieved by heating the samples in citrate buffer (pH 6.0) to boiling followed by cooling to room temperature. Immunohistochemical staining was performed using conventional methods (Universal DAKO EnVision System; peroxidase). Once endogenous peroxidase activity had been blocked, primary antibody was applied followed by incubation with horseradish peroxidase-labeled polymer. The reaction was completed with an enzyme/substrate system, with diaminobenzidine as the chromogen substrate. The tissue was counterstained with Harris hematoxylin. Primary antibodies included rabbit polyclonal anti-TNFα (AbCam ab34674, 1:50 dilution), anti-IL-1(3 (AbCam ab9722, 1:500) and anti-MCP-1α (Novus Biologicals NBP2-41209, 1:250). In each experiment, control, vehicle-treated and drug-treated samples were batched to ensure identical staining and signal-generating conditions.\nImmunoperoxidase staining using conventional techniques was also used to detect T-cells and macrophages in myocardial tissue sections from Dsg2^mut/mut mice. T-cells were identified using an anti-CD3 antibody (Abcam ab16669, 1:200 dilution) and macrophages were marked with an anti-CD68 antibody (Abcam ab127055, 1:400). After standard development in diaminobenzidine, sections were counterstained with hematoxylin and examined qualitatively by light microscopy.", "key": {"[1]": {"details": "Dsg2^mut/mut mice, continuous infusion over 8 weeks"}}, "data": [{"smiles": "Cc1ccc(S(=O)(=O)/C=C/C#N)cc1", "note": "[Bay 11-7082]", "values": [{"measurement": "abnormal distributions of plakoglobin, Cx43, GSK3β and SAP97", "setting": "[1]", "result": "normalized"}, {"measurement": "amount of ventricular myocardial necrosis and fibrosis", "setting": "[1]", "result": "marked reduction"}, {"measurement": "number of apoptotic cells seen by TUNEL labeling", "setting": "[1]", "result": "significant reduction"}, {"measurement": "abnormal distributions of plakoglobin, Cx43, GSK3β and SAP97", "setting": "Dsg2^mut/mut mice, continuous infusion over 8 weeks, listed as Bay11-7082", "result": "fully corrected"}, {"measurement": "immunoreactive signal intensity for IL-1β, TNFα and MCP-1α in myocytes and inflammatory cells", "setting": "myocardial sections of Dsg2^mut/mut mice", "result": "reduced"}, {"measurement": "total number of infiltrating inflammatory cells in the heart", "setting": "survey of myocardial sections, Dsg2^mut/mut mice", "result": "reduced"}]}]}
